Reference: patent US10711002B2, “Purine compounds and method for the treatment of cancer” (THE ROYAL INSTITUTION FOR THE ADVANCEMENT OF …, priority 2016, dated 2020)

Experiments:
Test in all cases: High-throughput kinase assay
Format in all cases: biochemical
TGFBR1 (ALK5) = target: T1, TGFBR1 (ALK5) (Homo sapiens, UniProt P36897); settings: read-out: Percent inhibition of kinase activity in vitro, TGFBR1 (ALK5); for inhibition at 0.1 µM: 100 nM; for inhibition at 0.5 µM: 500 nM
T1 sequence (P36897 34-503): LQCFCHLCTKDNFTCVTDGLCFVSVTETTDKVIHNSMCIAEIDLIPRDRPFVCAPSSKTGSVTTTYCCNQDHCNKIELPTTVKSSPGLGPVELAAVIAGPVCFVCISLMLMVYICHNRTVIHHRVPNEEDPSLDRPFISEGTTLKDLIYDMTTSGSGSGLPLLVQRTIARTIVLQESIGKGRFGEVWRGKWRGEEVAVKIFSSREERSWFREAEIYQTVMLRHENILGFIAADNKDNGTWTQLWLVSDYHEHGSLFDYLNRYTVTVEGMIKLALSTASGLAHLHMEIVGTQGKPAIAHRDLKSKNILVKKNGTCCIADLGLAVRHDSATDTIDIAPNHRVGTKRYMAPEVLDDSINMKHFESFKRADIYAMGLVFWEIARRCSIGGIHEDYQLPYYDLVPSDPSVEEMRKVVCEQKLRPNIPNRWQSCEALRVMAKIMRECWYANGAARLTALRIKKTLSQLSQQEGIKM
Description: (§1) Screening of Compounds 1-4 against several kinases identified two prominent targets of these compounds as the Aurora A kinase and calcium dependent protein kinase C isoforms α, βI, βII and […] (Tables 1 to 3). IC50s for these two targets were obtained by plotting inhibition levels at 500 nM, 100 nM, 50 nM and 10 nM (FIG. 3). These kinases are directly involved in pathways controlling cell differentiation programs, metastasis signaling, as well as EMT and CSC programming and their overexpression was reported to predict decreased metastasis-free survival.

FGFR1 = FGFR1 (Homo sapiens, UniProt P11362); settings: read-out: Percent inhibition of kinase activity in vitro, FGFR1; for inhibition at 0.1 µM: 100 nM; for inhibition at 0.5 µM: 500 nM
Description: as §1

PRKCB2 (PKC beta II) = PRKCB2 (PKC beta II) (Homo sapiens, UniProt P05771); settings: 50 nM; read-out: Percent inhibition of kinase activity in vitro, PRKCB2 (PKC beta II)
Description: as §1

AURKA (Aurora A) = target: T2, AURKA (Aurora A) (Homo sapiens, UniProt O14965); settings: for inhibition at 0.1 µM: 100 nM; for inhibition at 0.5 µM: 500 nM
T2 sequence (O14965 1-403): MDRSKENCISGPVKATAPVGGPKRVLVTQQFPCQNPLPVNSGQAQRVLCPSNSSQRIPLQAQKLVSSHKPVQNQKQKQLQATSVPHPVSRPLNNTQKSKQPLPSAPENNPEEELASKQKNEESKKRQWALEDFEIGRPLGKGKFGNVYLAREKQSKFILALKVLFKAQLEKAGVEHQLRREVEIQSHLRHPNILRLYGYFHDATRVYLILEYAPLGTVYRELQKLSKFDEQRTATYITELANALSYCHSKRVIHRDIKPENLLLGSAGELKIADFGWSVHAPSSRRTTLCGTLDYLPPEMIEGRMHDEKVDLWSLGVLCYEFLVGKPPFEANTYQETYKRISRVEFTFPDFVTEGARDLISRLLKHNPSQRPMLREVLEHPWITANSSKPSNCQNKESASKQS
Description: as §1

JAK2 = JAK2 (Homo sapiens, UniProt O60674); settings: read-out: Percent inhibition of kinase activity in vitro, JAK2; for inhibition at 0.1 µM: 100 nM; for inhibition at 0.5 µM: 500 nM
Description: as §1

PDGFRA (PDGFR alpha) = PDGFRA (PDGFR alpha) (Homo sapiens, UniProt P16234); settings: read-out: Percent inhibition of kinase activity in vitro, PDGFRA (PDGFR alpha); for inhibition at 0.1 µM: 100 nM; for inhibition at 0.5 µM: 500 nM
Description: as §1

LCK = LCK (Homo sapiens, UniProt P06239); settings: read-out: Percent inhibition of kinase activity in vitro, LCK; for inhibition at 0.1 µM: 100 nM; for inhibition at 0.5 µM: 500 nM
Chain of LCK (P06239 whole entry): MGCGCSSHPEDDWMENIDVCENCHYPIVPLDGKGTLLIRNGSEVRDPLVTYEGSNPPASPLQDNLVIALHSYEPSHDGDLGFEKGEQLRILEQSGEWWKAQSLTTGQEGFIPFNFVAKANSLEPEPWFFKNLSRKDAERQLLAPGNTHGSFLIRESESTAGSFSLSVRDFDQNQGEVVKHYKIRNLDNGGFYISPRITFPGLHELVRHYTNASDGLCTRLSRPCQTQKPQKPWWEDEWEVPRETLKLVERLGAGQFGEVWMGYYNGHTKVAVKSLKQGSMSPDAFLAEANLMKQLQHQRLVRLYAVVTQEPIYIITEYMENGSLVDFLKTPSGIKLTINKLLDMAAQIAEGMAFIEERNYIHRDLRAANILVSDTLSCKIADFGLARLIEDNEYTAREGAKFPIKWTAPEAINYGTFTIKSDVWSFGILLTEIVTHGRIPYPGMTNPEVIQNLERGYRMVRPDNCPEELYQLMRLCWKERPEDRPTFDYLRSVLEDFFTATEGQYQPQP
Description: as §1

AURKB (Aurora B) = AURKB (Aurora B) (Homo sapiens, UniProt Q96GD4); settings: read-out: Percent inhibition of kinase activity in vitro, AURKB (Aurora B); for inhibition at 0.1 µM: 100 nM; for inhibition at 0.5 µM: 500 nM
Chain of AURKB (Aurora B) (Q96GD4 whole entry): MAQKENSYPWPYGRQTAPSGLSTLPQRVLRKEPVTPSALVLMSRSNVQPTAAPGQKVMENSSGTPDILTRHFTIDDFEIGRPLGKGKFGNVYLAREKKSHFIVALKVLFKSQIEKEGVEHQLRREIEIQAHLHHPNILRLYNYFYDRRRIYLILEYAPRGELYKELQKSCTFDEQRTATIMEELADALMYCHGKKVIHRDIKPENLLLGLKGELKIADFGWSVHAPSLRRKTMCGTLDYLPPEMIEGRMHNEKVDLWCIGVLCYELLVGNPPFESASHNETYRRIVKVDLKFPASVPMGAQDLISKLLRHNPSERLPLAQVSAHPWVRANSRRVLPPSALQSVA
Description: as §1

EGFR (ErbB1) = EGFR (ErbB1) (Homo sapiens, UniProt P00533); settings: read-out: Percent inhibition of kinase activity in vitro, EGFR (ErbB1); for inhibition at 0.1 µM: 100 nM; for inhibition at 0.5 µM: 500 nM
Chain of EGFR (ErbB1) (P00533 25-1210): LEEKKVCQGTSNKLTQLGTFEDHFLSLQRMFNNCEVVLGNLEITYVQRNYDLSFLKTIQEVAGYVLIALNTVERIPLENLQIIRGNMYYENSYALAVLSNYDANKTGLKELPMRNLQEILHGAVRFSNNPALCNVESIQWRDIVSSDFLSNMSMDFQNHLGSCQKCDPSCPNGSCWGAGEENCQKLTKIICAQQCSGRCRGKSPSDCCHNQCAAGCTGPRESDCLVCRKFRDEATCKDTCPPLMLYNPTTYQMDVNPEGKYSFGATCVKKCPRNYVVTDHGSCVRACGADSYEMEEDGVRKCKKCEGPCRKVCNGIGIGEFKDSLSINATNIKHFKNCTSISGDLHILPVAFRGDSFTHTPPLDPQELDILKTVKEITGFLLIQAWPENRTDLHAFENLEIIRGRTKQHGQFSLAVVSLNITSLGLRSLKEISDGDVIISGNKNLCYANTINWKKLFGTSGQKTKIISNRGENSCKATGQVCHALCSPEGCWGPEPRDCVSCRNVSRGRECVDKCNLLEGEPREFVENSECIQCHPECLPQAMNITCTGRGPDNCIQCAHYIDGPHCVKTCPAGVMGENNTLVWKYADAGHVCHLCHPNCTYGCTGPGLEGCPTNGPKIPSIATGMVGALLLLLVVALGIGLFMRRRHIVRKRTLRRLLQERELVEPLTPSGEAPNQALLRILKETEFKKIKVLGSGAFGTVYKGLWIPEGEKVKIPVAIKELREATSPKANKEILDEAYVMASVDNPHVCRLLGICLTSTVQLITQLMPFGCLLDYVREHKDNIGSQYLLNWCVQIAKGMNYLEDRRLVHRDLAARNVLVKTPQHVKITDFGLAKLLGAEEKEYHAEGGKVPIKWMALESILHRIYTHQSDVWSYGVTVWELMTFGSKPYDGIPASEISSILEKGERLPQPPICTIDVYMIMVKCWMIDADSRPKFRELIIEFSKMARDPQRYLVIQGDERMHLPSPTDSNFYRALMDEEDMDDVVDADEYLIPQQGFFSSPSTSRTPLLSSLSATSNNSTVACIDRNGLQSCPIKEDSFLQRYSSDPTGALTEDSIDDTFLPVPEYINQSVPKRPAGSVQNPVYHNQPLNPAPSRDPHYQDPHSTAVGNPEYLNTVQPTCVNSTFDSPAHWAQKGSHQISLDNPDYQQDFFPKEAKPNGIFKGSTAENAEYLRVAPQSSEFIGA
Description: as §1

PRKCH (PKC eta) = PRKCH (PKC eta) (Homo sapiens, UniProt P24723); settings: 50 nM; read-out: Percent inhibition of kinase activity in vitro, PRKCH (PKC eta)
Description: as §1

YES1 = YES1 (Homo sapiens, UniProt P07947); settings: read-out: Percent inhibition of kinase activity in vitro, YES1; for inhibition at 0.1 µM: 100 nM; for inhibition at 0.5 µM: 500 nM
Description: as §1

RET = RET (Homo sapiens, UniProt P07949); settings: read-out: Percent inhibition of kinase activity in vitro, RET; for inhibition at 0.1 µM: 100 nM; for inhibition at 0.5 µM: 500 nM
Chain of RET (P07949 29-1114): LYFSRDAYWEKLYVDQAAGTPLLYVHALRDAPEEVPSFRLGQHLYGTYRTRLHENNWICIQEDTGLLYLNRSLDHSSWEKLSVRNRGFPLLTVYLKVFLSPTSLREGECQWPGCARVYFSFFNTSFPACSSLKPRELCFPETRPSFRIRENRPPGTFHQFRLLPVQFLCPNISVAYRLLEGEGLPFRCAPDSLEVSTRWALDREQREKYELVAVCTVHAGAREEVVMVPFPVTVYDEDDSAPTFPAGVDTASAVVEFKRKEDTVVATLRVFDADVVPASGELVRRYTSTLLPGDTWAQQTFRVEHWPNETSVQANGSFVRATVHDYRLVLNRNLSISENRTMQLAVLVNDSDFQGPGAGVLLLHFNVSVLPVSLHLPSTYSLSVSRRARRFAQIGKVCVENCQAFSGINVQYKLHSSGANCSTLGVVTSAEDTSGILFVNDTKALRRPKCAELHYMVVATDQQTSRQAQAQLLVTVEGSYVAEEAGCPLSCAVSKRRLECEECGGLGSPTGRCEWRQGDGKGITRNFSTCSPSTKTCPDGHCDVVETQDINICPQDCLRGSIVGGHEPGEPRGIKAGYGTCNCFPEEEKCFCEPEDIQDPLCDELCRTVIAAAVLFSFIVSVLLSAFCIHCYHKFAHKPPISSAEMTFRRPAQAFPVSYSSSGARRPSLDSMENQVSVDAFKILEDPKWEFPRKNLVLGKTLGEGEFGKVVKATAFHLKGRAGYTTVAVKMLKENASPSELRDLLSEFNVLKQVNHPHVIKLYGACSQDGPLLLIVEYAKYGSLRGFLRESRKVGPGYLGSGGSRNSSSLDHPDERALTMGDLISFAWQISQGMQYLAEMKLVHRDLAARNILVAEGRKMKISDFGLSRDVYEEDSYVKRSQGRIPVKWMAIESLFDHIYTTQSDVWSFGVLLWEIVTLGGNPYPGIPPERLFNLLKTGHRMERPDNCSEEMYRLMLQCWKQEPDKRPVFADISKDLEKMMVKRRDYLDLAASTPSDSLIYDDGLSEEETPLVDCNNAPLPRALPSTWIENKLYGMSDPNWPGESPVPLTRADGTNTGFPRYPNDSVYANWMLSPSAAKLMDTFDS
Description: as §1

BRAF-ZLYTE-100 = BRAF-ZLYTE-100 (Homo sapiens, UniProt P15056); settings: 100 nM; read-out: Percent inhibition of kinase activity in vitro, BRAF-ZLYTE-100
Description: as §1

FLT1 (VEGFR1) = FLT1 (VEGFR1) (Homo sapiens, UniProt P17948); settings: read-out: Percent inhibition of kinase activity in vitro, FLT1 (VEGFR1); for inhibition at 0.1 µM: 100 nM; for inhibition at 0.5 µM: 500 nM
Description: as §1

SRC = SRC (Homo sapiens, UniProt P12931); settings: read-out: Percent inhibition of kinase activity in vitro, SRC; for inhibition at 0.1 µM: 100 nM; for inhibition at 0.5 µM: 500 nM
Chain of SRC (P12931 whole entry): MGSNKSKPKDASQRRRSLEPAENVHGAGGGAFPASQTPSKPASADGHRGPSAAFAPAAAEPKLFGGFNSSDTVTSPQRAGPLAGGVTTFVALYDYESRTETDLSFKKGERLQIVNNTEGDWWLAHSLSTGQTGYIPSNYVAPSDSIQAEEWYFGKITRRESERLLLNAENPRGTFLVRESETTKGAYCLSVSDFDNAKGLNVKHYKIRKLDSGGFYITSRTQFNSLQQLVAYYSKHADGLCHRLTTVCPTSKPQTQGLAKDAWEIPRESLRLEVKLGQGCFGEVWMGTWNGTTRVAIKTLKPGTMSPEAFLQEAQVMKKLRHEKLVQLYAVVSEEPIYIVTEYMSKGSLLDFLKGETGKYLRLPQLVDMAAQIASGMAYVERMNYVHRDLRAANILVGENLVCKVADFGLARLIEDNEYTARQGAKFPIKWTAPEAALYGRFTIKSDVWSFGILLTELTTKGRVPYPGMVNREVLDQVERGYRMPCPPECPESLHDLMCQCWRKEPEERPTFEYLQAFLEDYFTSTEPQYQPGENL
Description: as §1

IGF1R = IGF1R (Homo sapiens, UniProt P08069); settings: read-out: Percent inhibition of kinase activity in vitro, IGF1R; for inhibition at 0.1 µM: 100 nM; for inhibition at 0.5 µM: 500 nM
Chain of IGF1R (P08069 31-1367): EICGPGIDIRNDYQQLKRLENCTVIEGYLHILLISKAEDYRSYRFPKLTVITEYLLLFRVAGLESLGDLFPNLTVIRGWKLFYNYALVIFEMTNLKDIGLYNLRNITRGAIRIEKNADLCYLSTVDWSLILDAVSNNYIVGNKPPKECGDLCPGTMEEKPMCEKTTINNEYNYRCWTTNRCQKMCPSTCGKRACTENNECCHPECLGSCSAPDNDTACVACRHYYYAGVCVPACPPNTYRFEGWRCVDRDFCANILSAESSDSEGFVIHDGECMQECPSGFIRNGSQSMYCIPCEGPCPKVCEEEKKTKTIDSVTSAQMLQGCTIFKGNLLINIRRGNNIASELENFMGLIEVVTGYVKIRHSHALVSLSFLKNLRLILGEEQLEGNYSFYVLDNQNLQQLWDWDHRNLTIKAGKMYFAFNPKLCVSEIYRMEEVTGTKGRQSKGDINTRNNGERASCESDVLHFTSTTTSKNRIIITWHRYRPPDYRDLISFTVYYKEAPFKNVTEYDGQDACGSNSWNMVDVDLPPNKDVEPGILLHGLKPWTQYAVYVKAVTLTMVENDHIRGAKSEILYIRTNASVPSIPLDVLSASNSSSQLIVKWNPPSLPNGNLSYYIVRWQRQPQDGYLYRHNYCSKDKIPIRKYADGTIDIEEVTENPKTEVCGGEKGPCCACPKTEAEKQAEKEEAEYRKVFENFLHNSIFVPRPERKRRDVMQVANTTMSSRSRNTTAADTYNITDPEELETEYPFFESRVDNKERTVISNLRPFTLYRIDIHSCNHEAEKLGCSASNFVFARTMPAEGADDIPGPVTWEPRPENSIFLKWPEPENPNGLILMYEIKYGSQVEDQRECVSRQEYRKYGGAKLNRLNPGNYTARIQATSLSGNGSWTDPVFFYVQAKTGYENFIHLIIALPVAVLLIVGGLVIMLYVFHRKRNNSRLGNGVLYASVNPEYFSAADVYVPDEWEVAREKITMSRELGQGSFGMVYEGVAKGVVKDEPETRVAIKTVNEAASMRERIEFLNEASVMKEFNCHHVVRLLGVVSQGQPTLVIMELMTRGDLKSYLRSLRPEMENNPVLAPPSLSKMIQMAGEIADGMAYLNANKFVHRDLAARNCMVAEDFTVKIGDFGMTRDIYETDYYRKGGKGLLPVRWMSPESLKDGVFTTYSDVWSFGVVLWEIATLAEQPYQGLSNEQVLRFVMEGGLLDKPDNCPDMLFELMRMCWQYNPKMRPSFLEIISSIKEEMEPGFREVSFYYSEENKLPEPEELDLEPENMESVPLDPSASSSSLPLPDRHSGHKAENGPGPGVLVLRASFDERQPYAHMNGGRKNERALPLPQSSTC
Description: as §1

PRKCG (PKC gamma) = PRKCG (PKC gamma) (Homo sapiens, UniProt P05129); settings: 50 nM; read-out: Percent inhibition of kinase activity in vitro, PRKCG (PKC gamma)
Description: as §1

FRAP1 (mTOR) = FRAP1 (mTOR) (Homo sapiens, UniProt P42345); settings: read-out: Percent inhibition of kinase activity in vitro, FRAP1 (mTOR); for inhibition at 0.1 µM: 100 nM; for inhibition at 0.5 µM: 500 nM
Description: as §1

[1] = read-out: Percent inhibition of kinase activity in vitro, AURKA (Aurora A)

SMILES | inhibition at 0.1 µM (TGFBR1 (ALK5)) | inhibition at 0.5 µM (TGFBR1 (ALK5)) | inhibition at 0.1 µM (FGFR1) | inhibition at 0.5 µM (FGFR1) | inhibition at 0.05 µM (PRKCB2 (PKC beta II)) | inhibition at 0.1 µM (AURKA (Aurora A); [1]) | inhibition at 0.5 µM (AURKA (Aurora A); [1]) | inhibition at 0.1 µM (JAK2) | inhibition at 0.5 µM (JAK2) | inhibition at 0.1 µM (PDGFRA (PDGFR alpha)) | inhibition at 0.5 µM (PDGFRA (PDGFR alpha)) | inhibition at 0.1 µM (LCK) | inhibition at 0.5 µM (LCK) | inhibition at 0.1 µM (AURKB (Aurora B)) | inhibition at 0.5 µM (AURKB (Aurora B)) | inhibition at 0.1 µM (EGFR (ErbB1)) | inhibition at 0.1 µM (YES1) | inhibition at 0.1 µM (RET) | inhibition at 0.1 µM (BRAF-ZLYTE-100) | inhibition at 0.1 µM (SRC) | also measured
O=c1c2ccccc2[se]n1-c1nc(NC2CCCCC2)c2nc[nH]c2n1 [Compound 1] | 0% | 0% | 0% | 2% | 62% | 89% | 94% | 10% | 10% | 0% | 3% | 7% | 14% | 12% | 25% | 1% | 22% | 5% | 1% | 1% | inhibition at 0.5 µM (EGFR (ErbB1)): 0%; inhibition at 0.05 µM (PRKCH (PKC eta)): 0%; inhibition at 0.5 µM (YES1): 47%; inhibition at 0.5 µM (RET): 23%; inhibition at 0.1 µM (FLT1 (VEGFR1)): 0%; inhibition at 0.5 µM (FLT1 (VEGFR1)): 1%; inhibition at 0.5 µM (SRC): 5%; inhibition at 0.1 µM (IGF1R): 0%; inhibition at 0.5 µM (IGF1R): 12%; inhibition at 0.05 µM (PRKCG (PKC gamma)): 45%; inhibition at 0.1 µM (FRAP1 (mTOR)): 1%; inhibition at 0.5 µM (FRAP1 (mTOR)): 2%
O=c1c2ccccc2[se]n1-c1nc(NC2CC[Se]C2)c2nc[nH]c2n1 (stereo not drawn) [Compound 2] | 0% | 0% | – | 0% | – | 93% | 97% | 15% | 13% | – | 4% | 10% | 14% | 19% | 13% | – | 22% | 6% | 0% | 4% | inhibition at 0.5 µM (EGFR (ErbB1)): 0%; inhibition at 0.5 µM (YES1): 35%; inhibition at 0.5 µM (RET): 18%; inhibition at 0.5 µM (FLT1 (VEGFR1)): 5%; inhibition at 0.5 µM (SRC): 7%; inhibition at 0.5 µM (IGF1R): 11%; inhibition at 0.5 µM (FRAP1 (mTOR)): 5%
C[C@@H]1C(Nc2nc(-n3[se]c4ccccc4c3=O)nc3[nH]cnc23)C[C@H]2C[C@@H]1C2(C)C (stereo partly drawn) [Compound 3] | 3% | 0% | – | 13% | – | 78% | 99% | 13% | 11% | – | 5% | 0% | 16% | 24% | 19% | – | 17% | 5% | 0% | 4% | inhibition at 0.5 µM (EGFR (ErbB1)): 0%; inhibition at 0.5 µM (YES1): 53%; inhibition at 0.5 µM (RET): 36%; inhibition at 0.5 µM (FLT1 (VEGFR1)): 7%; inhibition at 0.5 µM (SRC): 7%; inhibition at 0.5 µM (IGF1R): 13%; inhibition at 0.5 µM (FRAP1 (mTOR)): 1%
O=c1c2ccccc2[se]n1-c1nc(N[C@H]2CC[Se]C2)c2nc[nH]c2n1 [Compound 4] | 0% | – | 0% | – | 95% | 95% | – | 18% | – | 1% | – | 8% | – | 14% | – | 0% | 24% | 10% | 0% | 4% | inhibition at 0.01 µM (AURKA (Aurora A); 10 nM, read-out: Percent inhibition of kinase activity in vitro, AURKA (Aurora A)): 55%; inhibition at 0.05 µM (AURKA (Aurora A); 50 nM, read-out: Percent inhibition of kinase activity in vitro, AURKA (Aurora A)): 87%; IC50 (AURKA (Aurora A); from inhibition levels at 500, 100, 50 and 10 nM): 3.8 nM; inhibition at 0.05 µM (PRKCH (PKC eta)): 6%; inhibition at 0.1 µM (FLT1 (VEGFR1)): 4%; inhibition at 0.1 µM (IGF1R): 4%; inhibition at 0.05 µM (PRKCG (PKC gamma)): 47%; inhibition at 0.1 µM (FRAP1 (mTOR)): 8%
O=C1c2ccccc2CN1c1nc(NC2CCCCC2)c2nc[nH]c2n1 [SLLN-6C, reference compound] | 0% | – | 0% | – | 5% | 4% | – | 7% | – | 0% | – | 8% | – | 10% | – | 4% | 5% | 6% | 1% | 3% | inhibition at 0.05 µM (PRKCH (PKC eta)): 0%; inhibition at 0.1 µM (FLT1 (VEGFR1)): 0%; inhibition at 0.1 µM (IGF1R): 0%; inhibition at 0.05 µM (PRKCG (PKC gamma)): 0%; inhibition at 0.1 µM (FRAP1 (mTOR)): 0%
